In US20130303564A1, “METHOD FOR TREATING A NEURODEGENERATIVE DISORDER” (RUSH UNIVERSITY MEDICAL CENTER, priority 2012, published 2013):

Key:
NF-κB = test: Transcriptional activity of NF-κB (PBIIX-Luc reporter) in BV-2 microglial cells; assay type: cell-based, mouse; details: co-incubated with NaPB 6 h
Protocol: Transcriptional activity of NF-κB: Transcriptional activity of NF-κB was assayed. […] After 24 h of transfection, […], and firefly and Renilla luciferase activities were recorded in a TD-20/20 Luminometer (Turner Designs, Sunnyvale, Calif.) by analyzing total cell extract according to standard instructions provided in the Dual Luciferase Kit (Promega), Relative luciferase activity of cell extracts was typically represented as (firefly luciferase value/Renilta luciferase value)×10^−3.

BV-2 microglial cells = test: Superoxide production in microglial cells; assay type: cell-based, mouse; details: co-incubated with NaPB 6 h, then LPS 10 min
Text: Results represent three independent experiments.
Superoxide measurements: Superoxide production was detected by LumiMax™ Superoxide Anion Detection Kit (Stratagene) as described by us (30).

primary mouse microglia = test: LPS-induced NO (nitrite) production in primary mouse microglia; assay type: cell-based; details: other HDAC inhibitors, different concentrations, 6 h preincubation, LPS 24 h
Protocol: Primary mouse microglia were treated with different concentrations of NaPB for 6 h followed by stimulation with LPS under serum-free condition. After 24 h of stimulation, concentrations of nitrite were measured in supernatants (A) and the level of iNOS protein was monitored in cells by Western blot (B). […] After 5 h of stimulation, the expression of iNOS mRNA was monitored by semi-quantitative RT-PCR (C). Cells preinctibated with different concentration of trichostatin A (TSA) and sodium butyrate (NaBu) for 6 h were stimulated with LPS for 24 h under serum-free condition followed by monitoring the level of nitrite in supernatants (p). […] Primary human astroglia isolated from fetal brain tissues were treated with different concentrations of NaPB for 6 h followed by stimulation with IL-1β under serum-free condition. After 48 h of stimulation, concentrations of nitrite (E) were measured in supernatants. Human astroglia plated at 70-80% confluence in 12-well plates were co-transfected with 0.25 μg of phiNOS(7.2)Luc and 12.5 ng of pRL-TK using the Lipofectamine-Plus (Invitrogen). Twenty-four h after transfection, cells received NaPB. After 6 h of incubation, cells were stimulated with IL-1β (20 ng/ml) for 12 h. Firefly (ff-Luc) and Renilla (r-Luc) luciferase activities were obtained by analyzing the total cell extract (F).
Activated microglia and astroglia are known to produce excessive amount of NO having the potential of damaging neurons in neurodegenerative disorders. We investigated the effect of NaPB on the expression of iNOS in microglia. LPS is a prototype inducer of various proinflammatory molecules in different cell types including mouse microglia. Therefore, primary mouse microglia preincubated with different doses of NaPB for 6 h were stimulated with LPS under serum-free condition. […] We used trichostatin A (TSA) and sodium butyrate (NaBu) for this purpose.
Isolation of Mouse Microglia: Microglia were isolated from mixed glial cultures. Briefly, on day 7-9, the mixed glial cultures were washed three times with Dulbecco's modified Eagle's medium/F-12 and subjected to shaking at 240 rpm for 2 h at 37° C. on a rotary shaker. The floating cells were washed and seeded on to plastic tissue culture flasks and incubated at 37° C. for 1 h. The attached cells were seeded onto new plates for further studies. […] Mouse BV-2 microglial cells (kind gift from Virginia Bocchini of Universityof Perugia) were also maintained and induced as indicated above.

cholesterol = test: Serum cholesterol in male C57/BL6 mice; assay type: in vivo, mouse; details: 1 mg/kg body wt/d via gavage, 7 d
Protocol: Mice (6-8 wk old) were treated with NaPB (200 mg/kg body wt/d) and pravastatin (1 mg/kg body wt/d) separately via gavage for 7 d followed by quantification of cholesterol in serum using a simple fluorometric method.
Intermediates of the mevalonate pathway play a role in the expression of iNOS and proinflammatory cytokines in glial cells. End product of the mevalonate pathway is cholesterol and therefore, we investigated if NaPB had any effect on the level of cholesterol in vivo in mice.
Assay of cholesterol in serum: Total cholesterol was quantified irr serum by using an Amplex Red Cholesterol Assay kit from Invitrogen. Briefly, cholesterol was oxidized by cholesterol oxidase to yield H2O2, which then reacted with 10-acetyl-3,7 dihydroxyphenoxazine (Amplex Red). In the presence of horseradish peroxidase (HRP), this Amplex Red:H2O2 complex produced highly fluorescent resorufin, which was detected by fluorometry.

SMILES | effect on NaPB-mediated inhibition of NF-κB activation (NF-κB) | effect on NaPB-mediated inhibition of superoxide production (BV-2 microglial cells) | effect on LPS-induced production of NO (primary mouse microglia) | reduction of the level of cholesterol in serum (cholesterol)
CC(C)=CCC/C(C)=C/CC/C(C)=C/COP(=O)(O)OP(=O)(O)O [FPP, farnesyl pyrophosphate] | abrogated the inhibitory effect of NaPB |  |  | 
CC(C)=CCC/C(C)=C/CC/C(C)=C/CC/C(C)=C/COP(=O)(O)OP(=O)(O)O [GGPP, geranylgeranyl pyrophosphate] | abrogated the inhibitory effect of NaPB | abolished the inhibitory effect of NaPB |  | 
CC(C)(CO[P@@](=O)(O)O[P@@](=O)(O)OC[C@H]1O[C@@H](n2cnc3c(N)ncnc32)[C@H](O)[C@@H]1OP(=O)(O)O)[C@@H](O)C(=O)NCCC(=O)NCCSC(=O)C[C@@](C)(O)CC(=O)O [HMG-CoA] | abrogated the inhibitory effect of NaPB | abolished the inhibitory effect of NaPB |  | 
CCCC(=O)[O-].[Na+] [NaBu, sodium butyrate] |  |  | stimulated | 
CC(/C=C/C(=O)NO)=C\[C@@H](C)C(=O)c1ccc(N(C)C)cc1 [TSA, trichostatin A] |  |  | attenuated | 
CC(C)CCC[C@@H](C)[C@H]1CC[C@H]2[C@@H]3CC=C4C[C@@H](O)CC[C@]4(C)[C@H]3CC[C@]12C [cholesterol] | had no effect | had no effect |  | 
COC1=C(OC)C(=O)C(C/C=C(\C)CC/C=C(\C)CC/C=C(\C)CC/C=C(\C)CC/C=C(\C)CC/C=C(\C)CC/C=C(\C)CC/C=C(\C)CC/C=C(\C)CCC=C(C)C)=C(C)C1=O [coenzyme Q] | had no effect | had no effect |  | 
CC(O)(CCO)CC(=O)O (centres unmarked) [mevalonate] | abrogated the inhibitory effect of NaPB | abolished the inhibitory effect of NaPB |  | 
CC[C@H](C)C(=O)O[C@H]1C[C@H](O)C=C2C=C[C@H](C)[C@H](CC[C@@H](O)C[C@@H](O)CC(=O)O)[C@H]21 [pravastatin] |  |  |  | ~29%
